Values quoted from earlier work in article PMC12751000, “Dual Agonist/Antagonist Modulation of α9-Containing Nicotinic Acetylcholine Receptors by 2‑Ammoniumethyl Ethers of Stilbenol and Stilbenol Analogues” (Journal of Medicinal Chemistry, 2025).
pEC50: −log10 of the molar value.

Biological target: α7[L247T] mutant receptor
Parameters: method as in previous findings, citation number not given
Settings: chick α7[L247T] mutant; ref: previous findings, citation number not given; cited from earlier work

For CC[N+](CC)(CC)CCOc1ccc(/C=C/c2ccccc2)cc1 [Compound 1, 2-triethylammonium ethyl ether of 4-stilbenol], the pEC50 is given as 9.70.
